Test results as given in PubChem BioAssay (NCI).
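How tested: cells in 96-well plates exposed to compound for 48 hours at five concentrations. Here, GI50 denotes the concentration required for 50% inhibition of growth. TGI: concentration producing complete growth inhibition.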

What was measured:
Test in all cases: NCI tumour cell line growth inhibition, 48 h
SW-620 colon = tested on: SW-620 colon
SF-295 CNS = tested on: SF-295 CNS
786-0 renal = tested on: 786-0 renal
HOP-92 NSCLC = tested on: HOP-92 NSCLC
MOLT-4 leukemia = tested on: MOLT-4 leukemia
IGROV1 ovarian = tested on: IGROV1 ovarian
HCC-2998 colon = tested on: HCC-2998 colon
CCRF-CEM leukemia = tested on: CCRF-CEM leukemia
SF-268 CNS = tested on: SF-268 CNS
UACC-62 melanoma = tested on: UACC-62 melanoma
HCT-15 colon = tested on: HCT-15 colon
NCI-H460 lung = tested on: NCI-H460 lung
SK-OV-3 ovarian = tested on: SK-OV-3 ovarian
MDA-MB-435 = tested on: MDA-MB-435
EKVX NSCLC = tested on: EKVX NSCLC
RXF 393 renal = tested on: RXF 393 renal
MALME-3M melanoma = tested on: MALME-3M melanoma
SK-MEL-28 melanoma = tested on: SK-MEL-28 melanoma
SN12C renal = tested on: SN12C renal
SF-539 CNS = tested on: SF-539 CNS
SR leukemia = tested on: SR leukemia
T-47D breast = tested on: T-47D breast
NCI/ADR-RES ovarian = tested on: NCI/ADR-RES ovarian
HOP-62 NSCLC = tested on: HOP-62 NSCLC
DU-145 prostate = tested on: DU-145 prostate
A549 NSCLC = tested on: A549 NSCLC
SNB-19 CNS = tested on: SNB-19 CNS
NCI-H226 lung = tested on: NCI-H226 lung
BT-549 breast = tested on: BT-549 breast
OVCAR-5 ovarian = tested on: OVCAR-5 ovarian
HT29 colon = tested on: HT29 colon
ACHN renal = tested on: ACHN renal
UO-31 renal = tested on: UO-31 renal
SK-MEL-2 melanoma = tested on: SK-MEL-2 melanoma
PC-3 prostate = tested on: PC-3 prostate
SK-MEL-5 melanoma = tested on: SK-MEL-5 melanoma
MDA-MB-231 breast = tested on: MDA-MB-231 breast
NCI-H23 lung = tested on: NCI-H23 lung
TK-10 renal = tested on: TK-10 renal
HCT-116 colon = tested on: HCT-116 colon
M14 melanoma = tested on: M14 melanoma
LOX IMVI melanoma = tested on: LOX IMVI melanoma
SNB-75 CNS = tested on: SNB-75 CNS
OVCAR-8 ovarian = tested on: OVCAR-8 ovarian
OVCAR-4 ovarian = tested on: OVCAR-4 ovarian
MCF7 breast = tested on: MCF7 breast
UACC-257 melanoma = tested on: UACC-257 melanoma
KM12 colon = tested on: KM12 colon
NCI-H522 lung = tested on: NCI-H522 lung
K-562 leukemia = tested on: K-562 leukemia
U251 CNS = tested on: U251 CNS
CAKI-1 renal = tested on: CAKI-1 renal
A498 renal = tested on: A498 renal
COLO 205 colon = tested on: COLO 205 colon
RPMI-8226 leukemia = tested on: RPMI-8226 leukemia

CCCCCc1ccc(S(=O)(=O)Nc2cc(-c3csc(NC(=O)CN4CCN(CCO)CC4)n3)ccc2OC)cc1
GI50 (SW-620 colon): 1.75 µM
TGI (SW-620 colon): 3.3 µM
GI50 (SF-295 CNS): 1.89 µM
TGI (SF-295 CNS): 3.74 µM
GI50 (786-0 renal): 1.85 µM
TGI (786-0 renal): 3.39 µM
GI50 (HOP-92 NSCLC): 1.5 µM
TGI (HOP-92 NSCLC): 3 µM
GI50 (MOLT-4 leukemia): 3.17 µM
TGI (MOLT-4 leukemia): 10.6 µM
GI50 (IGROV1 ovarian): 1.92 µM
TGI (IGROV1 ovarian): 4.01 µM
GI50 (HCC-2998 colon): 1.93 µM
TGI (HCC-2998 colon): 3.8 µM
GI50 (CCRF-CEM leukemia): 2.54 µM
TGI (CCRF-CEM leukemia): 7.83 µM
GI50 (SF-268 CNS): 1.7 µM
TGI (SF-268 CNS): 3.4 µM
GI50 (UACC-62 melanoma): 1.81 µM
TGI (UACC-62 melanoma): 3.54 µM
GI50 (HCT-15 colon): 1.86 µM
TGI (HCT-15 colon): 3.65 µM
GI50 (NCI-H460 lung): 1.84 µM
TGI (NCI-H460 lung): 3.46 µM
GI50 (SK-OV-3 ovarian): 1.81 µM
TGI (SK-OV-3 ovarian): 3.3 µM
GI50 (MDA-MB-435): 1.7 µM
TGI (MDA-MB-435): 3.21 µM
GI50 (EKVX NSCLC): 1.69 µM
TGI (EKVX NSCLC): 3.59 µM
GI50 (RXF 393 renal): 1.38 µM
TGI (RXF 393 renal): 3.01 µM
GI50 (MALME-3M melanoma): 1.64 µM
TGI (MALME-3M melanoma): 3.15 µM
GI50 (SK-MEL-28 melanoma): 1.77 µM
TGI (SK-MEL-28 melanoma): 3.25 µM
GI50 (SN12C renal): 1.94 µM
TGI (SN12C renal): 3.69 µM
GI50 (SF-539 CNS): 1.54 µM
TGI (SF-539 CNS): 2.95 µM
GI50 (SR leukemia): 1.76 µM
TGI (SR leukemia): 5.23 µM
GI50 (T-47D breast): 1.79 µM
TGI (T-47D breast): 3.78 µM
GI50 (NCI/ADR-RES ovarian): 3.49 µM
TGI (NCI/ADR-RES ovarian): 14.1 µM
GI50 (HOP-62 NSCLC): 1.66 µM
TGI (HOP-62 NSCLC): 3.18 µM
GI50 (DU-145 prostate): 1.89 µM
TGI (DU-145 prostate): 3.6 µM
GI50 (A549 NSCLC): 1.89 µM
TGI (A549 NSCLC): 4.18 µM
GI50 (SNB-19 CNS): 2.05 µM
TGI (SNB-19 CNS): 4.59 µM
GI50 (NCI-H226 lung): 1.9 µM
TGI (NCI-H226 lung): 3.88 µM
GI50 (BT-549 breast): 1.55 µM
TGI (BT-549 breast): 3.1 µM
GI50 (OVCAR-5 ovarian): 2.19 µM
TGI (OVCAR-5 ovarian): 5.44 µM
GI50 (HT29 colon): 1.89 µM
TGI (HT29 colon): 3.75 µM
GI50 (ACHN renal): 1.81 µM
TGI (ACHN renal): 3.28 µM
GI50 (UO-31 renal): 1.52 µM
TGI (UO-31 renal): 3.03 µM
GI50 (SK-MEL-2 melanoma): 1.78 µM
TGI (SK-MEL-2 melanoma): 3.36 µM
GI50 (PC-3 prostate): 2.68 µM
TGI (PC-3 prostate): 7.88 µM
GI50 (SK-MEL-5 melanoma): 1.77 µM
TGI (SK-MEL-5 melanoma): 3.2 µM
GI50 (MDA-MB-231 breast): 1.94 µM
TGI (MDA-MB-231 breast): 3.83 µM
GI50 (NCI-H23 lung): 1.93 µM
TGI (NCI-H23 lung): 4.38 µM
GI50 (TK-10 renal): 1.94 µM
TGI (TK-10 renal): 3.96 µM
GI50 (HCT-116 colon): 1.72 µM
TGI (HCT-116 colon): 3.24 µM
GI50 (M14 melanoma): 1.71 µM
TGI (M14 melanoma): 3.24 µM
GI50 (LOX IMVI melanoma): 1.73 µM
TGI (LOX IMVI melanoma): 3.24 µM
GI50 (SNB-75 CNS): 1.39 µM
TGI (SNB-75 CNS): 2.75 µM
GI50 (OVCAR-8 ovarian): 1.82 µM
TGI (OVCAR-8 ovarian): 3.52 µM
GI50 (OVCAR-4 ovarian): 2.05 µM
TGI (OVCAR-4 ovarian): 5.12 µM
GI50 (MCF7 breast): 1.62 µM
TGI (MCF7 breast): 3.2 µM
GI50 (UACC-257 melanoma): 1.66 µM
TGI (UACC-257 melanoma): 3.22 µM
GI50 (KM12 colon): 1.92 µM
TGI (KM12 colon): 3.7 µM
GI50 (NCI-H522 lung): 1.86 µM
TGI (NCI-H522 lung): 3.58 µM
GI50 (K-562 leukemia): 2.69 µM
TGI (K-562 leukemia): > 100 µM
GI50 (U251 CNS): 1.73 µM
TGI (U251 CNS): 3.41 µM
GI50 (CAKI-1 renal): 1.62 µM
TGI (CAKI-1 renal): 3.32 µM
GI50 (A498 renal): 1.58 µM
TGI (A498 renal): 2.95 µM
GI50 (COLO 205 colon): 1.61 µM
TGI (COLO 205 colon): 3.11 µM
GI50 (RPMI-8226 leukemia): 1.78 µM
TGI (RPMI-8226 leukemia): 4.28 µM
